# The source made the active and inactive calls. No cut-off for these calls is given here.
# What was measured:
# [1] = Tmax in Sprague-Dawley rat at 10 mg/kg, ip measured after 24 hrs by LC-MS/MS analysis; type: ADME, organism-based; conditions: in vivo
# [2] = system: NCI-H446; experiment: Induction of apoptosis in human NCI-H446 cells assessed as increase in cleaved caspase-9 level incubated for 48 hrs by Western blot analysis; type: functional, cell-based; conditions: dose 1-8 µM
# [3] = system: NCI-H1048; experiment: Inhibition of clonogenesis in human NCI-H1048 cells incubated for 14 to 21 days by crystal violet staining based analysis; type: functional, cell-based; conditions: dose 0.375-3 µM, time 14-21 day
# [4] = target: T1, DNA topoisomerase 1 (Homo sapiens) (UniProt P11387); experiment: Inhibition of Topo I (unknown origin) relaxation activity using pBR322 plasmid DNA as substrate at 25 to 100 uM incubated for 30 mins; conditions: dose 25-100 µM
# T1 sequence (whole entry): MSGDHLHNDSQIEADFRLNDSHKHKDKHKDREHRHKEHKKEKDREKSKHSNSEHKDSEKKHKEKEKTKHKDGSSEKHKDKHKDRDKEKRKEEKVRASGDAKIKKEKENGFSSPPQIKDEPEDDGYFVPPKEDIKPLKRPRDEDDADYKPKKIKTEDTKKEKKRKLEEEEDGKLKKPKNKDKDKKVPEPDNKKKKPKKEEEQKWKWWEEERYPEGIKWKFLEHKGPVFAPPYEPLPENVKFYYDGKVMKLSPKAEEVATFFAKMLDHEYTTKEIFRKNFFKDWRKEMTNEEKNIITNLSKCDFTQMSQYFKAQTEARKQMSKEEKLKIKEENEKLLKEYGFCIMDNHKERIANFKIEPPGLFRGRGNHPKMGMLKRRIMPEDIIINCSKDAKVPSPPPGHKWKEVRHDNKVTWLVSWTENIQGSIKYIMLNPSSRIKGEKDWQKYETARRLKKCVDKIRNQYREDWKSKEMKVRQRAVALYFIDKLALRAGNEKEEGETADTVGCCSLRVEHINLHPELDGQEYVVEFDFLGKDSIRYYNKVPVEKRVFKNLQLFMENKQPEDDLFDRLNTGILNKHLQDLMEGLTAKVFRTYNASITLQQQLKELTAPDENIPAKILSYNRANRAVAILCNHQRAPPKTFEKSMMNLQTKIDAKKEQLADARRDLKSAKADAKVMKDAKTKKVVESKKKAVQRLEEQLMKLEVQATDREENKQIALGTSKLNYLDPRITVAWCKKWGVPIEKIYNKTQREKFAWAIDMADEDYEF
# [5] = system: NCI-H446; experiment: Induction of mitochondrial dysfunction in human NCI-H446 cells assessed as increase in ROS level at 1 to 8 uM incubated for 48 hrs by DCFH-DA staining based flow cytometry; type: functional, cell-based; conditions: dose 1-8 µM
# [6] = MRT (0 to t) in Sprague-Dawley rat at 10 mg/kg, ip measured after 24 hrs by LC-MS/MS analysis; type: ADME, organism-based; conditions: in vivo
# [7] = system: NCI-H1048; experiment: Inhibition of cell invasion in human NCI-H1048 cells incubated for 24 hrs by transwell assay; type: functional, cell-based
# [8] = system: NCI-H146; experiment: Antiproliferative activity against human NCI-H146 cells incubated for 72 hrs; type: functional, cell-based; conditions: NCI-H146, 72 h
# [9] = Toxicity in BALB/c nude mouse xenografted with human NCI-H446 cells assessed as deleterious effect in kidney at 10 to 20 mg/kg, ip for 21 days by H and E staining based analysis; type: organism-based; conditions: in vivo, 504 h, dose 10-20 mg/kg, time 21 day
# [10] = system: NCI-H209; experiment: Antiproliferative activity against human NCI-H209 cells incubated for 72 hrs; type: functional, cell-based; conditions: NCI-H209, 72 h
# [11] = Toxicity in BALB/c nude mouse xenografted with human NCI-H446 cells assessed as body weight change at 10 to 20 mg/kg, ip for 21 days; type: organism-based; conditions: in vivo, 504 h, dose 10-20 mg/kg, time 21 day
# [12] = Inhibition of PI3K/AKT/mTOR signalling pathway in human NCI-H446 cells assessed as decrease in AKT level at 1 to 8 uM incubated for 48 hrs by Western blot analysis; type: cell-based; conditions: dose 1-8 µM
# [13] = system: NCI-H1048; experiment: Induction of apoptosis in human NCI-H1048 cells assessed as decrease in Bcl-2 level incubated for 48 hrs by Western blot analysis; type: functional, cell-based
# [14] = system: NCI-H1048; experiment: Antiproliferative activity against human NCI-H1048 cells incubated for 72 hrs; type: functional, cell-based; conditions: NCI-H1048, 72 h
# [15] = system: NCI-H446; experiment: Induction of apoptosis in human NCI-H446 cells assessed as reduction in cell viability incubated for 48 hrs by Geimsa staining based analysis; type: functional; conditions: dose 1-8 µM
# [16] = Toxicity in BALB/c nude mouse xenografted with human NCI-H446 cells assessed as deleterious effect in liver at 10 to 20 mg/kg, ip for 21 days by H and E staining based analysis; type: organism-based; conditions: in vivo, 504 h, dose 10-20 mg/kg, time 21 day
# [17] = Toxicity in BALB/c nude mouse xenografted with human NCI-H446 cells assessed as deleterious effect in spleen at 10 to 20 mg/kg, ip for 21 days by H and E staining based analysis; type: organism-based; conditions: in vivo, 504 h, dose 10-20 mg/kg, time 21 day
# [18] = system: SHP77; experiment: Antiproliferative activity against human SHP77 cells incubated for 72 hrs; type: functional, cell-based; conditions: SHP77, 72 h
# [19] = Half life in Sprague-Dawley rat at 10 mg/kg, ip measured after 24 hrs by LC-MS/MS analysis; type: ADME, organism-based; conditions: in vivo
# [20] = system: NCI-H446; experiment: Inhibition of cell migration in human NCI-H446 cells incubated for 24 hrs by transwell assay; type: functional, cell-based; conditions: dose 0.375-3 µM
# [21] = system: NCI-H446; experiment: Inhibition of cell migration in human NCI-H446 cells incubated for 24 hrs by wound-healing assay; type: functional, cell-based; conditions: dose 0.375-3 µM
# [22] = system: NCI-H1048; experiment: Induction of apoptosis in human NCI-H1048 cells assessed as increase in Bax level incubated for 48 hrs by Western blot analysis; type: functional, cell-based
# [23] = Acute toxicity in Kunming mouse assessed as lethal dose; conditions: in vivo
# [24] = system: NCI-H446; experiment: Induction of apoptosis in human NCI-H446 cells assessed as increase in cleaved caspase-3 level incubated for 48 hrs by Western blot analysis; type: functional, cell-based; conditions: dose 1-8 µM
# [25] = Cmax in Sprague-Dawley rat at 10 mg/kg, ip measured after 24 hrs by LC-MS/MS analysis; type: ADME, organism-based; conditions: in vivo
# [26] = system: NCI-H446; experiment: Induction of apoptosis in human NCI-H446 cells assessed as decrease in Bcl-2 level incubated for 48 hrs by Western blot analysis; type: functional, cell-based; conditions: dose 1-8 µM
# [27] = system: NCI-H446; experiment: Antitumor activity against human NCI-H446 cells xenografted in BALB/c nude mouse at 10 mg/kg, ip for 21 days relative to control; type: functional; conditions: NCI-H446, 504 h, time 21 day, read-out: TGI
# [28] = system: NCI-H446; experiment: Antitumor activity against human NCI-H446 cells xenografted in BALB/c nude mouse at 20 mg/kg, ip for 21 days relative to control; type: functional; conditions: NCI-H446, 504 h, time 21 day, read-out: TGI
# [29] = system: NCI-H82; experiment: Antiproliferative activity against human NCI-H82 cells incubated for 72 hrs; type: functional, cell-based; conditions: NCI-H82, 72 h
# [30] = Antiproliferative activity against human L02 cells incubated for 72 hrs; type: toxicity, cell-based
# [31] = system: NCI-H1048; experiment: Induction of cell cycle arrest in human NCI-H1048 cells assessed as accumulation at S phase incubated for 48 hrs by PI staining based flow cytometry; type: functional
# [32] = system: NCI-H446; experiment: Antiproliferative activity against human NCI-H446 cells incubated for 72 hrs; type: functional, cell-based; conditions: NCI-H446, 72 h
# [33] = Acute toxicity in Kunming mouse assessed as change in body weight at 300 mg/kg, ip measured for 10 days; type: organism-based; conditions: in vivo, 240 h, time 10 day
Structure (SMILES),Tmax [1] [h],Activity [2],inhibition [3],inhibition [4],Activity [5],MRT last at 24 h [6] [h],inhibition [7],IC50 [8] [µM],Activity [9],IC50 [10] [µM],Activity [11],inhibition [12],Activity [13],IC50 [14] [µM],Activity [15],Activity [16],Activity [17],IC50 [18] [µM],half-life [19] [h],inhibition [20],also measured
CC1CC(C)CN(Cc2cc3c(cc2-c2cc4ccc5c(c4cn2)OCO5)OCO3)C1 (stereo unspecified),0.25,Dose-dependent-effect,Dose-dependent-effect; Potent Inhibitory Effect At Equivalent Efficacy As Etoposide,Active,Active,5.02,Dose-dependent-effect; Displayed Stronger Inhibitory Effect Than Etoposide,22.8,Non-toxic,36.8,Non-toxic,Active,Dose-dependent-effect,1.42,Dose-dependent-effect,Non-toxic,Non-toxic,7.92,3.38,Dose-dependent-effect; Displayed Stronger Inhibitory Effect Than Etoposide,inhibition [21]: Dose-dependent-effect; Exhibited Superior Inhibitory Effect Compared To Etoposide At Same Concentration; Activity [22]: Dose-dependent-effect; LD50 [23]: 300 mg/kg; Activity [24]: Dose-dependent-effect; Cmax [25]: 145 ng/mL; Activity [26]: Dose-dependent-effect; inhibition in vivo at 10 mg/kg [27]: 75.2%; inhibition in vivo at 20 mg/kg [28]: 82.2%; IC50 [29]: 2.25 µM; IC50 at 72 h [30]: 29.1 µM; Activity [31]: Dose-dependent-effect; IC50 [32]: 1.3 µM; Activity [33]: Non-toxic
CCC1CCCC(C)N1Cc1cc2c(cc1-c1cc3ccc4c(c3cn1)OCO4)OCO2 (stereo unspecified),0.25,Dose-dependent-effect,Dose-dependent-effect,Active,Active,5.42,Dose-dependent-effect,6.23,Non-toxic,11.6,Non-toxic,Active,Dose-dependent-effect,2.45,Dose-dependent-effect,Non-toxic,Non-toxic,8.01,4.86,Dose-dependent-effect,inhibition [21]: Dose-dependent-effect; Activity [22]: Dose-dependent-effect; LD50 [23]: 300 mg/kg; Activity [24]: Dose-dependent-effect; Cmax [25]: 228 ng/mL; Activity [26]: Dose-dependent-effect; inhibition in vivo at 10 mg/kg [27]: 69.2%; inhibition in vivo at 20 mg/kg [28]: 85.5%; IC50 [29]: 2.41 µM; IC50 at 72 h [30]: 26.1 µM; Activity [31]: Dose-dependent-effect; IC50 [32]: 1.32 µM; Activity [33]: Non-toxic
